{"source": "PubChem BioAssay (NCI)", "assay_in_all_cases": "NCI-60 cell line screen, 48 h", "key": {"A498 renal": {"test_system": "A498 renal"}, "SNB-75 CNS": {"test_system": "SNB-75 CNS"}, "SW-620 colon": {"test_system": "SW-620 colon"}, "CCRF-CEM leukemia": {"test_system": "CCRF-CEM leukemia"}, "K-562 leukemia": {"test_system": "K-562 leukemia"}, "RPMI-8226 leukemia": {"test_system": "RPMI-8226 leukemia"}, "BT-549 breast": {"test_system": "BT-549 breast"}, "M14 melanoma": {"test_system": "M14 melanoma"}, "SNB-19 CNS": {"test_system": "SNB-19 CNS"}, "SK-MEL-2 melanoma": {"test_system": "SK-MEL-2 melanoma"}, "HCT-116 colon": {"test_system": "HCT-116 colon"}, "HOP-92 NSCLC": {"test_system": "HOP-92 NSCLC"}, "MCF7 breast": {"test_system": "MCF7 breast"}, "KM12 colon": {"test_system": "KM12 colon"}, "HS 578T breast": {"test_system": "HS 578T breast"}, "UO-31 renal": {"test_system": "UO-31 renal"}, "NCI-H226 lung": {"test_system": "NCI-H226 lung"}, "HOP-62 NSCLC": {"test_system": "HOP-62 NSCLC"}, "NCI-H460 lung": {"test_system": "NCI-H460 lung"}, "HCT-15 colon": {"test_system": "HCT-15 colon"}, "TK-10 renal": {"test_system": "TK-10 renal"}, "SK-MEL-28 melanoma": {"test_system": "SK-MEL-28 melanoma"}, "SF-295 CNS": {"test_system": "SF-295 CNS"}, "ACHN renal": {"test_system": "ACHN renal"}, "MALME-3M melanoma": {"test_system": "MALME-3M melanoma"}, "SF-268 CNS": {"test_system": "SF-268 CNS"}, "CAKI-1 renal": {"test_system": "CAKI-1 renal"}, "HL-60(TB) leukemia": {"test_system": "HL-60(TB) leukemia"}}, "note": "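Briefly, cells in 96-well plates were exposed to five compound concentrations for 48 h, and endpoints were estimated by linear interpolation. Here, GI50 denotes the concentration required for 50% inhibition of growth. TGI: total growth inhibition.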"}
{"smiles": "CC[C@]12C=CCN3CC[C@]4(C(=C(C(=O)OC)C1)Nc1cc5c(cc14)[C@@H]1[C@H](O5)[C@@H](O)[C@@]4(CC)CC(C(=O)OC)=C5Nc6cc(O)ccc6[C@@]56CCN1C46)C32", "note": "(stereo not given in full)", "values": [{"measurement": "GI50", "setting": "A498 renal", "result": 81.8, "unit": "nM"}, {"measurement": "TGI", "setting": "A498 renal", "result": 407, "unit": "nM"}, {"measurement": "GI50", "setting": "SNB-75 CNS", "result": 369, "unit": "nM"}, {"measurement": "TGI", "setting": "SNB-75 CNS", "result": "> 50000", "unit": "nM"}, {"measurement": "GI50", "setting": "SW-620 colon", "result": 167, "unit": "nM"}, {"measurement": "TGI", "setting": "SW-620 colon", "result": 2270, "unit": "nM"}, {"measurement": "GI50", "setting": "CCRF-CEM leukemia", "result": 94, "unit": "nM"}, {"measurement": "TGI", "setting": "CCRF-CEM leukemia", "result": "> 50000", "unit": "nM"}, {"measurement": "GI50", "setting": "K-562 leukemia", "result": 47.5, "unit": "nM"}, {"measurement": "TGI", "setting": "K-562 leukemia", "result": "> 50000", "unit": "nM"}, {"measurement": "GI50", "setting": "RPMI-8226 leukemia", "result": 79.8, "unit": "nM"}, {"measurement": "TGI", "setting": "RPMI-8226 leukemia", "result": 990, "unit": "nM"}, {"measurement": "GI50", "setting": "BT-549 breast", "result": 168, "unit": "nM"}, {"measurement": "TGI", "setting": "BT-549 breast", "result": 1300, "unit": "nM"}, {"measurement": "GI50", "setting": "M14 melanoma", "result": 109, "unit": "nM"}, {"measurement": "TGI", "setting": "M14 melanoma", "result": 9550, "unit": "nM"}, {"measurement": "GI50", "setting": "SNB-19 CNS", "result": 210, "unit": "nM"}, {"measurement": "TGI", "setting": "SNB-19 CNS", "result": "> 25600", "unit": "nM"}, {"measurement": "GI50", "setting": "SK-MEL-2 melanoma", "result": 164, "unit": "nM"}, {"measurement": "TGI", "setting": "SK-MEL-2 melanoma", "result": 1580, "unit": "nM"}, {"measurement": "GI50", "setting": "HCT-116 colon", "result": 72.7, "unit": "nM"}, {"measurement": "TGI", "setting": "HCT-116 colon", "result": 597, "unit": "nM"}, {"measurement": "GI50", "setting": "HOP-92 NSCLC", "result": 15.7, "unit": "nM"}, {"measurement": "TGI", "setting": "HOP-92 NSCLC", "result": 1050, "unit": "nM"}, {"measurement": "GI50", "setting": "MCF7 breast", "result": 27, "unit": "nM"}, {"measurement": "TGI", "setting": "MCF7 breast", "result": "> 50000", "unit": "nM"}, {"measurement": "GI50", "setting": "KM12 colon", "result": 256, "unit": "nM"}, {"measurement": "TGI", "setting": "KM12 colon", "result": 6990, "unit": "nM"}, {"measurement": "GI50", "setting": "HS 578T breast", "result": 172, "unit": "nM"}, {"measurement": "TGI", "setting": "HS 578T breast", "result": "> 50000", "unit": "nM"}, {"measurement": "GI50", "setting": "UO-31 renal", "result": 93.3, "unit": "nM"}, {"measurement": "TGI", "setting": "UO-31 renal", "result": 3070, "unit": "nM"}, {"measurement": "GI50", "setting": "NCI-H226 lung", "result": 179, "unit": "nM"}, {"measurement": "GI50", "setting": "HOP-62 NSCLC", "result": 136, "unit": "nM"}, {"measurement": "TGI", "setting": "HOP-62 NSCLC", "result": "> 15300", "unit": "nM"}, {"measurement": "GI50", "setting": "NCI-H460 lung", "result": 332, "unit": "nM"}, {"measurement": "TGI", "setting": "NCI-H460 lung", "result": 8080, "unit": "nM"}, {"measurement": "GI50", "setting": "HCT-15 colon", "result": 92.7, "unit": "nM"}, {"measurement": "TGI", "setting": "HCT-15 colon", "result": 358, "unit": "nM"}, {"measurement": "GI50", "setting": "TK-10 renal", "result": 64.2, "unit": "nM"}, {"measurement": "TGI", "setting": "TK-10 renal", "result": 645, "unit": "nM"}, {"measurement": "GI50", "setting": "SK-MEL-28 melanoma", "result": 410, "unit": "nM"}, {"measurement": "TGI", "setting": "SK-MEL-28 melanoma", "result": 18400, "unit": "nM"}, {"measurement": "GI50", "setting": "SF-295 CNS", "result": 187, "unit": "nM"}, {"measurement": "TGI", "setting": "SF-295 CNS", "result": 9340, "unit": "nM"}, {"measurement": "GI50", "setting": "ACHN renal", "result": 153, "unit": "nM"}, {"measurement": "TGI", "setting": "ACHN renal", "result": 1100, "unit": "nM"}, {"measurement": "GI50", "setting": "MALME-3M melanoma", "result": 128, "unit": "nM"}, {"measurement": "TGI", "setting": "MALME-3M melanoma", "result": 9230, "unit": "nM"}, {"measurement": "GI50", "setting": "SF-268 CNS", "result": 352, "unit": "nM"}, {"measurement": "TGI", "setting": "SF-268 CNS", "result": "> 20700", "unit": "nM"}, {"measurement": "GI50", "setting": "CAKI-1 renal", "result": 39.8, "unit": "nM"}, {"measurement": "TGI", "setting": "CAKI-1 renal", "result": 1590, "unit": "nM"}, {"measurement": "GI50", "setting": "HL-60(TB) leukemia", "result": 19.8, "unit": "nM"}, {"measurement": "TGI", "setting": "HL-60(TB) leukemia", "result": 2110, "unit": "nM"}]}
